Test results as given in patent EP2246337A1, “Use of isoxazole derivatives as cyclooxygenase inhibitors” (Universita' degli Studi di Bari, priority 2004, dated 2005).
Where two headings read alike, the source gives them in different places. Marks after values point to notes of the source that are not given here.

Legend:
[1] = target: T1, platelet COX-1 (Homo sapiens, UniProt P23219); experiment: COX-1 assay in isolated human whole blood allowed to clot (serum TXB2); assay type: cell-based; settings: for IC50: isolated human whole blood clotting 1 hour at 37°C, TXB2, means of at least two experiments
T1 construct: 1 ml aliquots of isolated whole blood were immediately transferred into glass test tubes and kept at a temperature of 37°C; endogenous in cells; host or cells: platelets in human whole blood (healthy volunteers / study subjects)
T1 sequence (P23219 24-599): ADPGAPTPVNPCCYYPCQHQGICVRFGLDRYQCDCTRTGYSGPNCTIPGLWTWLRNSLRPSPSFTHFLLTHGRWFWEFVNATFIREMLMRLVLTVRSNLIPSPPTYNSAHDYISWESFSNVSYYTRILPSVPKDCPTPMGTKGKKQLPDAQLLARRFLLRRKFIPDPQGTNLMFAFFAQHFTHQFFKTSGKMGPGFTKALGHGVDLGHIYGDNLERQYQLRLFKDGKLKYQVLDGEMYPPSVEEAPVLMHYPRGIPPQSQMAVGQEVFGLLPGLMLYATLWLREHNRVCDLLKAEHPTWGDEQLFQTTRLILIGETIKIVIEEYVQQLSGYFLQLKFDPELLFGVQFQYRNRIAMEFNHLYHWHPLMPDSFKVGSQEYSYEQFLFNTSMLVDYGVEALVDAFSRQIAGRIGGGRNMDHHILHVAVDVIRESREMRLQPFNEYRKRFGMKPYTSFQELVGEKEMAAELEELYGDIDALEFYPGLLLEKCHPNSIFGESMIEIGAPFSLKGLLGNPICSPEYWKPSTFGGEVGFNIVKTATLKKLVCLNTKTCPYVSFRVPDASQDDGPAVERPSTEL
Experimental: 11 healthy volunteers (6 females aged between 25 and 29 years) were enrolled to participate in the study after each having given their written approval.
1 ml aliquots of isolated whole blood were immediately transferred into glass test tubes and kept at a temperature of 37°C for 1 hour. The serum was separated by centrifugation (10 min at 3000 rpm) and kept at -70°C until assayed for thromboxane (TX)B2.
From 4 to 9 different concentrations of each compound were incubated with heparinised isolated whole blood samples in the presence of LPS (10 micrograms/ml) for 24 hours or with isolated whole blood samples allowed to clot at 37°C for 1 hour, in order to examine the concentration-dependence of COX-2 vs. COX-1 inhibition, respectively.
The concentrations of PGE2 and TXB2 were measured by radioimmunological assays (Patrono C. et al.. Low dose aspirin and inhibition of thromboxane B2 production in healthy subjects. Thromb. Res. 1980; 17: 317-27; Ciabattoni G. et al. J Endocrinol Invest 1979; 2:173-182). Isolated plasma and serum samples were diluted in the standard diluent of the assay (0.02M phosphate buffer, pH 7.4) and assayed in a volume of 1.5 ml at a final dilution of 1:50-1:30.000. 4000 d.p.m. of [^3H]-PGE2 or [^3H]-TXB2 were used and specific anti-PGE2 and anti-TXB2 antibody diluted 1:100,000 and 1:120,000, respectively. The least detectable concentration was 1-2 pg/ml for both prostanoids.

[2] = target: T2, monocyte COX-2 (Homo sapiens, UniProt P35354); experiment: COX-2 assay in LPS-stimulated isolated human whole blood (plasma PGE2); assay type: cell-based; settings: for IC50: heparinised isolated human whole blood, LPS 10 micrograms/ml, 24 hours, PGE2, means of at least two experiments
T2 construct: isolated peripheral venous blood samples containing 10 IU of sodium heparin were incubated in the laboratory in the presence of LPS; endogenous in cells; host or cells: monocytes in LPS-stimulated heparinised human whole blood
T2 sequence (P35354 18-604): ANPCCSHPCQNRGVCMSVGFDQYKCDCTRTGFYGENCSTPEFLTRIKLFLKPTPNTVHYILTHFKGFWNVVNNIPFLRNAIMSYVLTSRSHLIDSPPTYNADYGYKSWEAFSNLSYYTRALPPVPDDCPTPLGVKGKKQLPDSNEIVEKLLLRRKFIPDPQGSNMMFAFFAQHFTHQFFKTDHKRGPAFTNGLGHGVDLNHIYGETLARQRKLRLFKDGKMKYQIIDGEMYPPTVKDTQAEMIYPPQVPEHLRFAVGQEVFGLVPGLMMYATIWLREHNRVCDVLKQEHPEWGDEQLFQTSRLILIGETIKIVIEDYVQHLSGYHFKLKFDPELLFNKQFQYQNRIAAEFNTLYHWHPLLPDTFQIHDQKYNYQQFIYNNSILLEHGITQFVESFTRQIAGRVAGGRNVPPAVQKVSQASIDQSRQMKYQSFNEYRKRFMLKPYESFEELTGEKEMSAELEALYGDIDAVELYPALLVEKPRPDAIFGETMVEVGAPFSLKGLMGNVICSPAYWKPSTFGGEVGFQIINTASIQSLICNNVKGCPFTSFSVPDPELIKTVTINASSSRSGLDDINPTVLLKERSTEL

[3] = test system: biosynthesis of prostacyclin; experiment: Urinary excretion of 2,3-dinor-6-keto-PGF1α (index of systemic prostacyclin biosynthesis in vivo) after rofecoxib; set-up: species or system human; settings: for percent change from pretreatment at 25 mg: Homo sapiens, 120 h
Text: (§1) The collection of overnight urine samples was obtained to assess the urinary excretion of 11-dehydro-thromboxane B2 and of 2,3-dinor-6-keto-PGF1α before treatment with the drug and after the last dose of rofecoxib.
(§2) Biochim Biophys Acta 1987;918:293-7. […] J Pharmacol Exp Ther 1995;275:94-100).

[4] = target: T3, COX-1 platelet activity (Homo sapiens, UniProt P23219); experiment: Ex vivo platelet COX-1 activity (serum TXB2) in subjects treated with rofecoxib; settings: median (range); for Serum Thromboxane B2: rofecoxib 25 mg per day for 5 consecutive days; for COX-1 platelet activity, % of variation vs pretreatment values: 25 mg per day for 5 consecutive days
T3 construct: 1 ml aliquots of isolated whole blood were immediately transferred into glass test tubes and kept at a temperature of 37°C; endogenous in cells; host or cells: platelets in human whole blood (healthy volunteers / study subjects)
T3 sequence (P23219 24-599): as the sequence (P23219 24-599) above
Experimental: (§3) Subjects with disturbances of a haemorrhagic nature, allergy to aspirin or to other non-steroidal anti-inflammatory drugs (NSAID) or with a history of gastrointestinal disorders were excluded from the study. The subjects refrained from using aspirin or other non-steroidal anti-inflammatory drugs (NSAID) for at least two weeks prior to the study. The blood samples were taken to determine COX-1 platelet activity and COX-2 monocyte activity before treatment with the drug and 12 hours after the last administration (at 8 a.m. on the sixth day of the study).
(§4) The effects of Rofecoxib on COX-1 platelet activity were assessed (assessing the production of serum TXB2 as described in Patrono et al., Thromb Res 1980;17:317-27) and on COX-2 monocyte activity (measuring the production of PGE2 in whole blood stimulated with LPS, as described in Patrignani et al., J Pharmacol Exp Ther 1994;271:1705-12).

[5] = target: T4, COX-2 monocyte activity (Homo sapiens, UniProt P35354); experiment: in vivo
Experimental: as §3, §4

[6] = target: T4, COX-2 monocyte activity; settings: rofecoxib 25 mg per day for 5 consecutive days, median (range)
Experimental: as §3, §4

[7] = test system: biosynthesis of Thromboxane A2; experiment: Urinary excretion of 11-dehydro-thromboxane B2 (index of systemic thromboxane A2 biosynthesis in vivo) after rofecoxib; set-up: species or system human; settings: median (range); for 11-dehydro-thromboxane B2: rofecoxib 25 mg per day for 5 consecutive days, overnight urine; for urinary excretion of 11-dehydro-TXB2, % of pre-drug values: 25 mg per day for 5 days
Text: as §1, §2

Q: Which results are given for `Cc1onc(-c2ccccc2)c1-c1ccccc1` [2a (P10), 3,4-Diphenyl-5-methylisoxazole]?
A: COX-1 inhibition (result in words) [1]: excellent COX-1 inhibitors; IC50 [1]: 90 nM; IC50 [2]: 2490 nM

Q: What does the source list for `Cc1onc(-c2ccc(Cl)o2)c1-c1ccccc1` [2c (P6), 3-(5-Chloro-2-furyl)-4-phenyl-5-methylisoxazole]?
A: COX-1 inhibition (result in words) [1]: excellent COX-1 inhibitors; suppression of platelet COX-1 activity ([1]; at concentrations that do not affect monocyte COX-2 activity, concentration-response curves): > 90%; IC50 [1]: 500 nM; effect on monocyte COX-2 activity ([2]; at concentrations giving virtually complete suppression of platelet COX-1 activity): do not affect monocyte COX-2 activity

Q: `CCc1onc(-c2ccccc2)c1-c1ccccc1` [2g (P9), 3,4-Diphenyl-5-ethylisoxazole] was tested. Which “COX-1 inhibition (result in words)” value [1] did it give?
A: excellent COX-1 inhibitors

Q: What about the IC50 [1] of the same compound?
A: 50 nM

Q: What about the IC50 [2] of the same compound?
A: 1490 nM

Q: Which results are given for `CS(=O)(=O)c1ccc(C2=C(c3ccccc3)C(=O)OC2)cc1` [Rofecoxib]?
A: 2,3 dinor-6 keto-prostaglandin F1α ([3]; "Wild-type" TLR4 subjects, rofecoxib 25 mg per day for 5 consecutive days, overnight urine, median (range)): 56.5(38-84)^* pg/mg creatinine; 2,3 dinor-6-keto-prostaglandin F1α ([3]; Carriers of TLR4 Polymorphisms, rofecoxib 25 mg per day for 5 consecutive days, overnight urine, median (range)): 50 (28-93)^* pg/mg creatinine; percent change from pretreatment at 25 mg ([3]; read-out: inhibition of the urinary excretion of 2,3-dinor-6-keto PGF1α, "wild-type" subjects (second value of 'respectively'), 25 mg per day for 5 days, median (range)): -61%; percent change from pretreatment at 25 mg ([3]; read-out: inhibition of the urinary excretion of 2,3-dinor-6-keto PGF1α, carriers of TLR4 polymorphisms (first value of 'respectively'), 25 mg per day for 5 days, median (range)): -64%; inhibition of prostacyclin ([3]; similar in the two groups of patients (carriers of TLR4 polymorphisms and wild-type)): about 60%; Serum Thromboxane B2 ([4]; "Wild-type" TLR4 subjects): 233.5 (178-391) ng/ml; Serum Thromboxane B2 ([4]; Carriers of TLR4 Polymorphisms): 225 (94-728) ng/ml; COX-1 platelet activity, % of variation vs pretreatment values ([4]; carriers of TLR4 polymorphism): -11(from 0 to -57) %; COX-1 platelet activity, % of variation vs pretreatment values ([4]; non carriers of TLR4 polymorphism): -10(from 0 to -10) %; inhibition at 25 mg ([5]; read-out: monocyte COX-2 activity ex vivo, % inhibition, carriers of TLR4 polymorphism, 25 mg per day for 5 consecutive days, median (range)): -94%; inhibition at 25 mg ([5]; read-out: monocyte COX-2 activity ex vivo, % inhibition, non carriers of TLR4 polymorphism, 25 mg per day for 5 consecutive days, median (range)): -85%; Prostaglandin E2 induced by lipopolysaccharide ([6]; "Wild-type" TLR4 subjects): 2.3 (0.3-4.2) ^** ng/ml; Prostaglandin E2 induced by lipopolysaccharide ([6]; Carriers of TLR4 Polymorphisms): 5.3 (1.9-11)^** ng/ml; 11-dehydro-thromboxane B2 ([7]; "Wild-type" TLR4 subjects): 345 (155-595.6) pg/mg creatinine; urinary excretion of 11-dehydro-TXB2, % of pre-drug values ([7]; "wild-type" subjects): 71 (67-84) %; 11-dehydro-thromboxane B2 ([7]; Carriers of TLR4 Polymorphisms): 329 (158-587)^* pg/mg creatinine; urinary excretion of 11-dehydro-TXB2, % of pre-drug values ([7]; carriers of TLR4 polymorphisms): 174 (136-354) %
